According to PubChem BioAssay (NCI):
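A five-concentration, 48-hour dose response in 96-well plates underlies each endpoint, interpolated linearly between surrounding concentrations. Here, GI50 denotes the concentration required for 50% inhibition of growth. Definition used: TGI = concentration required for complete inhibition of growth.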

Experiments:
Test in all cases: NCI tumour cell line growth inhibition, 48 h; in the data active means GI50 below about 0.43 µM; inactive means the rest
[1] = test system: SK-MEL-5 melanoma
[2] = test system: SW-620 colon
[3] = test system: TK-10 renal
[4] = test system: HT29 colon
[5] = test system: RXF 393 renal
[6] = test system: HCC-2998 colon
[7] = test system: KM12 colon
[8] = test system: OVCAR-5 ovarian
[9] = test system: HL-60(TB) leukemia
[10] = test system: ACHN renal
[11] = test system: HOP-62 NSCLC
[12] = test system: UO-31 renal
[13] = test system: PC-3 prostate
[14] = test system: HS 578T breast
[15] = test system: SK-OV-3 ovarian
[16] = test system: MDA-MB-231 breast
[17] = test system: T-47D breast
[18] = test system: A498 renal
[19] = test system: CAKI-1 renal
[20] = test system: UACC-62 melanoma
[21] = test system: NCI/ADR-RES ovarian
[22] = test system: RPMI-8226 leukemia
[23] = test system: MOLT-4 leukemia
[24] = test system: NCI-H23 lung
[25] = test system: SF-539 CNS
[26] = test system: SK-MEL-2 melanoma
[27] = test system: NCI-H460 lung
[28] = test system: OVCAR-4 ovarian
[29] = test system: EKVX NSCLC
[30] = test system: HCT-116 colon
[31] = test system: SF-295 CNS
[32] = test system: MCF7 breast
[33] = test system: LOX IMVI melanoma
[34] = test system: SNB-75 CNS
[35] = test system: NCI-H522 lung
[36] = test system: SN12C renal
[37] = test system: CCRF-CEM leukemia
[38] = test system: DU-145 prostate
[39] = test system: HCT-15 colon
[40] = test system: SF-268 CNS
[41] = test system: SNB-19 CNS
[42] = test system: K-562 leukemia
[43] = test system: NCI-H226 lung
[44] = test system: UACC-257 melanoma
[45] = test system: A549 NSCLC
[46] = test system: OVCAR-3 ovarian
[47] = test system: COLO 205 colon
[48] = test system: 786-0 renal
[49] = test system: OVCAR-8 ovarian
[50] = test system: U251 CNS
[51] = test system: SK-MEL-28 melanoma

C=C(CN1CCc2ccccc2C1)c1ccc(C(=O)Nc2cnccn2)cc1
62.6 µM: TGI [46]
61.2 µM: TGI [34]
61 µM: TGI [1]
84.5 µM: TGI [15]
68 µM: TGI [30]
56.5 µM: TGI [7]
40.1 µM: TGI [47]
42.5 µM: TGI [35]
83.3 µM: TGI [25]
> 100 µM: TGI [2] | TGI [3] | TGI [5] | TGI [6] | TGI [8] | TGI [11] | TGI [13] | TGI [14] | TGI [16] | TGI [17] | TGI [18] | TGI [19] | TGI [20] | TGI [21] | TGI [23] | TGI [24] | TGI [26] | TGI [27] | TGI [28] | TGI [29] | TGI [32] | TGI [36] | TGI [37] | TGI [39] | TGI [40] | TGI [41] | TGI [43] | TGI [44] | TGI [45] | TGI [48] | TGI [49] | TGI [50] | TGI [51]
14 µM: TGI [9]
inactive: GI50 [1] 20.8 µM | GI50 [2] 42.3 µM | GI50 [3] 86.3 µM | GI50 [4] 24.1 µM | GI50 [5] 39 µM | GI50 [6] 36.1 µM | GI50 [7] 12.5 µM | GI50 [8] > 100 µM | GI50 [9] 3.55 µM | GI50 [10] 30.8 µM | GI50 [11] 27.1 µM | GI50 [12] 24.4 µM | GI50 [13] 1860 nM | GI50 [14] 57.1 µM | GI50 [15] 24.3 µM | GI50 [16] 27.3 µM | GI50 [17] > 100 µM | GI50 [18] 33.4 µM | GI50 [19] 7.77 µM | GI50 [20] 44 µM | GI50 [21] 4.95 µM | GI50 [22] 3.35 µM | GI50 [23] 5.82 µM | GI50 [24] 18.4 µM | GI50 [25] 7.59 µM | GI50 [26] 46.6 µM | GI50 [27] 36.3 µM | GI50 [28] 99.4 µM | GI50 [29] 52.8 µM | GI50 [30] 16.6 µM | GI50 [31] 19.1 µM | GI50 [32] > 100 µM | GI50 [33] 9.18 µM | GI50 [34] 16.7 µM | GI50 [35] 18.2 µM | GI50 [36] 50.4 µM | GI50 [37] 5.42 µM | GI50 [38] 30.1 µM | GI50 [39] 28.8 µM | GI50 [40] 60.4 µM | GI50 [41] 51.1 µM | GI50 [42] 3.17 µM | GI50 [43] > 100 µM | GI50 [44] 83.6 µM | GI50 [45] 31 µM | GI50 [46] 22.1 µM | GI50 [47] 17.5 µM | GI50 [48] 25.4 µM | GI50 [49] 30.2 µM | GI50 [50] 16.2 µM | GI50 [51] 25.4 µM
10.3 µM: TGI [22]
> 100000 nM: TGI [10] | TGI [12] | TGI [33]
59.5 µM: TGI [4]
73 µM: TGI [31]
14.7 µM: TGI [42]
89.7 µM: TGI [38]

OCCNc1nc(NCCO)nc(Nc2ccc(C3=NN(c4cc(Cl)cc(Cl)c4)C(c4ccc(C(F)(F)F)cc4)C3)cc2)n1 (configuration not stated)
inactive: GI50 [1] 1.72 µM | GI50 [10] 1.37 µM | GI50 [12] 1.55 µM | GI50 [31] 1.36 µM | GI50 [33] 1.56 µM
2.71 µM: TGI [31]
2920 nM: TGI [12]
2970 nM: TGI [33]
2660 nM: TGI [10]
3.11 µM: TGI [1]
